These compounds were tested against T1, human CTPS1 (Homo sapiens, UniProt P17812) (assay: Human CTPS1 enzyme inhibition (ADP-Glo Max assay)). Details: Table 23; ADP-Glo Max assay; read-out: CTPS1 (Human CTPS1 Enzyme Inhibition data grouped by potency range, IC50).
T1 construct: purchased Proteros biostructures GmbH
T1 sequence (P17812 1-591): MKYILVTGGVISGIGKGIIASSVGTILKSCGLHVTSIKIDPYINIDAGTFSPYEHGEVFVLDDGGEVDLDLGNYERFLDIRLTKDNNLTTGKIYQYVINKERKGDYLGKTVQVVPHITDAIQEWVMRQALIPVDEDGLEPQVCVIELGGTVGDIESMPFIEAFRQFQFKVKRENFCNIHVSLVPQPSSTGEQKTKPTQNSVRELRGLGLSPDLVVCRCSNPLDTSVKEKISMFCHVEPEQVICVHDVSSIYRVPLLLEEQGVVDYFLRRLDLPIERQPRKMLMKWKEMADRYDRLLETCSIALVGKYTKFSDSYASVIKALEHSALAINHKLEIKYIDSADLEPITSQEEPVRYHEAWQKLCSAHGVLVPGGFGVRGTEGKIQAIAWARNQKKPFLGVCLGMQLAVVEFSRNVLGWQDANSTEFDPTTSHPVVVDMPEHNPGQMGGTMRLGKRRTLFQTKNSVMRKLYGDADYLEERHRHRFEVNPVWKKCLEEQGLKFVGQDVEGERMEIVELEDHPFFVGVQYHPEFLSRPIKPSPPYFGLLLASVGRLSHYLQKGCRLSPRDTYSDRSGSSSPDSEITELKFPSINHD
Format: biochemical
Experimental: Biological Example 1—Human CTPS1 Enzyme Inhibition
The enzyme inhibitory activities of compounds invented against the target of interest were determined using the ADP-Glo™ Max assay (Promega, UK). Assays for human CTPS1 were performed in 1× assay buffer containing 50 mM Tris, 10 mM MgCl2, 0.01% Tween-20, pH to 8.0 accordingly. Finally, immediately before use, L-cysteine was added to the 1× assay buffer to a final concentration of 2 mM. All reagents are from Sigma-Aldrich unless specified otherwise. Human full length active C-terminal FLAG-Hiss-tag CTPS1 (UniProtKB-P17812, CTPS[1-591]-[…]) was obtained from Proteros biostructures GmbH.
3× human CTPS1 protein was prepared in 1× assay buffer to the final working protein concentration required for the reaction. A 2 uL volume per well of 3× human CTPS1 protein was mixed with 2 uL per well of 3× test compound (compound prepared in 1× assay buffer to an appropriate final 3× compound concentration respective to the concentration response curve designed for the compounds under test) for 10 minutes at 25° C. The enzymatic reaction was then initiated by addition of a 2 uL per well volume of a pre-mixed substrate mix (UltraPure ATP from ADP-Glo™ Max kit (0.31 mM), GTP (0.034 mM), UTP (0.48 mM) and L-glutamine (0.186 mM)) and the mixture was incubated for an appropriate amount of time within the determined linear phase of the reaction at 25° C. under sealed plate conditions with constant agitation at 500 revolutions per minute (rpm). ADP-Glo™ Max reagent was added for 60 minutes (6 μL per well) and subsequently ADP-Glo™ Max development reagent was added for 60 minutes (12 uL per well) prior to signal detection in a microplate reader (EnVision® Multilabel Reader, Perkin Elmer). Following each reagent addition over the course of the assay, assay plates were pulse centrifuged for 30 seconds at 500 rpm.
In all cases, the enzyme converts ATP to ADP and the ADP-Glo™ Max reagent subsequently depletes any remaining endogenous ATP in the reaction system. The ADP-Glo™ Max detection reagent converts the ADP that has been enzymatically produced back into ATP and using ATP as a substrate together with luciferin for the enzyme luciferase, light is generated which produces a detectable luminescence. […] The percentage inhibition produced by each concentration of compound was calculated using the equation shown below: […]
Percentage inhibition was then plotted against compound concentration, and the 50% inhibitory concentration (IC50) was determined from the resultant concentration-response curve.

IC50 [nM]	Compound
100 to 1000	O=C(Cc1cccc(NS(=O)(=O)C2CC2)n1)Nc1ccc(-c2cncc(C(F)(F)F)n2)cc1 [Example P172]
≤ 100	COc1cncc(-c2ccc(NC(=O)Cc3cccc(NS(=O)(=O)C4CC4)n3)cc2)n1 [Example P173]
1000 to 10000	O=C(Cc1cccc(NS(=O)(=O)C2CC2)n1)Nc1ccc(-c2cnccn2)cc1 [Example P174]
1000 to 10000	CC(C)(C(=O)Nc1ccc(-c2cccnc2)cn1)c1cccc(NS(=O)(=O)C2CC2)n1 [Example P175]
1000 to 10000	CC(C)(C(=O)Nc1ccc(-c2cncc(Cl)c2)cc1)c1cccc(NS(=O)(=O)C2CC2)n1 [Example P176]
1000 to 10000	CC(C)(C(=O)Nc1ccc(-c2cncc(F)c2)cc1)c1cccc(NS(=O)(=O)C2CC2)n1 [Example P177]
1000 to 10000	CCOc1cncc(-c2ccc(NC(=O)C(C)(C)c3cccc(NS(=O)(=O)C4CC4)n3)cc2)c1 [Example P178]
1000 to 10000	CC(C)(C(=O)Nc1ccc(-c2cccnc2)cc1)c1cccc(NS(=O)(=O)C2CC2)n1 [Example P179]
1000 to 10000	CC(C)(C(=O)Nc1ccc(-c2cnccn2)cc1F)c1cccc(NS(=O)(=O)C2CC2)n1 [Example P180]
1000 to 10000	CC(C)(C(=O)Nc1ccc(-c2cncc(C(F)(F)F)n2)cc1)c1cccc(NS(=O)(=O)C2CC2)n1 [Example P181]
100 to 1000	CC(C)(C(=O)Nc1ccc(-c2cncc(Cl)n2)cc1)c1cccc(NS(=O)(=O)C2CC2)n1 [Example P182]
100 to 1000	CCOc1cncc(-c2ccc(NC(=O)C(C)(C)c3cccc(NS(=O)(=O)C4CC4)n3)cc2)n1 [Example P183]
100 to 1000	COc1cncc(-c2ccc(NC(=O)C(C)(C)c3cccc(NS(=O)(=O)C4CC4)n3)cc2)n1 [Example P184]
1000 to 10000	CC(C)(C(=O)Nc1ccc(-c2cnccn2)cc1)c1cccc(NS(=O)(=O)C2CC2)n1 [Example P185]
≤ 100	CCOc1cncc(-c2ccc(NC(=O)C3(c4cccc(NS(=O)(=O)C5CC5)n4)CCOCC3)nc2)n1 [Example P186]
1000 to 10000	O=C(Cc1cncc(NS(=O)(=O)C2CC2)n1)Nc1ccc(-c2cccnc2)cc1 [Example P192]
1000 to 10000	CCS(=O)(=O)Nc1cncc(CC(=O)Nc2ccc(-c3cccnc3)cc2)n1 [Example P193]
100 to 1000	CCOc1cncc(-c2ccc(C(=O)NC3(c4ccnc(NS(=O)(=O)C5CC5)n4)CC3)c(F)c2)n1 [Example P209]

Same assay, conditions: Table 24; ADP-Glo Max assay; read-out: CTPS1 (Human CTPS1 Enzyme Inhibition data grouped by potency range, IC50)

IC50 [nM]	Compound
100 to 1000	CCOc1cncc(-c2ccc(CNC(CC)c3ccnc(NS(=O)(=O)C4CC4)n3)c(F)c2)n1 (stereo not shown) [Example P235, N-(4-(1-((4-(6-Ethoxypyrazin-2-yl)-2-fluorobenzyl)amino)propyl)pyrimidin-2-yl)cyclopropanesulfonamide]
100 to 1000	CCOc1cncc(-c2ccc(CNC3(c4ccnc(NS(=O)(=O)C5CC5)n4)CC3)nc2)n1 [Example P254]
100 to 1000	CCOc1cncc(-c2ccc(CNC3(c4ccnc(NS(=O)(=O)C5CC5)n4)CC3)c(F)c2)n1 [Example P255]
100 to 1000	CCOc1cncc(-c2ccc(NCC3(c4ccnc(NS(=O)(=O)C5CC5)n4)CCOCC3)cc2)n1 [Example P256]
≤ 100	CCOc1cncc(-c2ccc(NC(=O)C3(c4ccnc(NS(=O)(=O)C5CC5)n4)CC4(C3)OCCO4)nc2)n1 [Example P258]
≤ 100	CCOc1cncc(-c2ccc(NC(=O)C3(c4ccnc(NS(=O)(=O)C5CC5)n4)CCC(OC)CC3)nc2)n1 (stereo not shown) [Example P260]

Same assay, conditions: Table 25; compounds where R1 is substituted by CN; read-out: CTPS1 (Human CTPS1 Enzyme Inhibition data grouped by potency range, IC50)

IC50 [nM]	Compound
≤ 100	CCOc1cncc(-c2ccc(NC(=O)C3(c4ccnc(NS(=O)(=O)C5(C#N)CC5)n4)CCOCC3)nc2)n1 [Example P285, 4-(2-((1-cyanocyclopropane)-1-sulfonamido)pyrimidin-4-yl)-N-(5-(6-ethoxypyrazin-2-yl)pyridin-2-yl)tetrahydro-2H-pyran-4-carboxamide]

From patent US20230002352A1, “SULFONAMIDE DERIVATIVES AS CTPS1 INHIBITORS” (Step Pharma S.A.S., priority 2019, published 2023)
